Experimental data: US20160176924A1, “MODIFIED PEPTIDES AS POTENT INHIBITORS OF THE PSD-95/NMDA RECEPTOR INTERACTION” (priority 2008, published 2016)
One block for each compound: values may come before it. Numbered stars: 1 amine (or outer) side, 2 acyl side, 3 side chain; on linkers, the order of the positions; unused ones are H or OH. Bridge positions count the residues as written; N and C are the ends. Square brackets hold non-standard residues; d marks the D form. Ends that are not written are not given here. Peptide text beside a SMILES is read from it. I, II: the chains in the order shown. CO(CH2CH2O)9CH2CH2CO = O=C(CCOCCOCCOCCOCCOCCOCCOCCOCCOCCC(=O)[*:2])[*:1]; NMeE = CN[C@@H](CCC(=O)O)C(=O)O

Experiments:
PDZ1 of PSD-95 = biological target: T1, PDZ1 of PSD-95 (Homo sapiens, UniProt P78352); assay: FP heterologous competition binding assay; conditions: for Ki: FP competition, mean ± SEM, NA = no activity/affinity
T1 construct: PSD-95 PDZ1 (residues 61-151); made in house; host or cells: E. coli BL21-DE3 pLysS
Source text: (§1) Determined IC50 values may be converted to Ki values.^5 Suitable fluorophores include either 5-FAM or Cy5, which may be coupled to a tripeptide (KSG or CSG) linker attached to the N-terminus of the undecapeptide, to give 5-FAM-NR2B, Cy5-NR2B, 5-FAM-CRIPT and Cy5-CRIPT. The 5-FAM fluorophore may be attached to the undecapeptides by coupling with HATU. The Cy5 fluorophore may be conjugated to the undecapeptides by coupling Cy5-maleimide to the cysteine side chain of the tripeptide sequence CSG attached to the N-terminus of the peptide, as detailed in the Methodology section.
(§2) To measure the affinities between non-fluorescent peptides and PDZ domains, heterologous competition bindings assay were performed. This was done by adding increasing concentrations of peptide to a fixed concentration of Cy5-NR2B, 5-FAM-NR2B, Cy5-CRIPT or 5-FAM-CRIPT (50 nM) and PDZ (20 μM for PDZ1, 3 μM for PDZ2 and 1-2 and 5 μM for PDZ3) in the same TBS buffer and conditions as described above. FP values were then fitted to the general equation: Y=Bottom+(Top−Bottom)/[1[…](10̂^X-logIC50)], where X is the logarithmic value of peptide concentration. Hereby the IC50 value was obtained, which is used to calculate the theoretical competitive inhibition constant, Ki.^5
(§3) A convenient and reliable way to examine interactions between peptide analogues and PDZ domains is by using a fluorescence polarization (FP) assay. The three PDZ domains, PDZ1-3, of PSD-95 were expressed individually as set out above, while PDZ1-2 was also expressed as a tandem construct. […] IC50 values were then converted to Ki values.^5

PDZ2 of PSD-95 = biological target: T2, PDZ2 of PSD-95 (Homo sapiens, UniProt P78352); assay: FP heterologous competition binding assay; conditions: for affinity to PDZ2, in words: FP assay; for Ki: FP competition, mean ± SEM, NA = no activity/affinity
T2 construct: PDZ2 (residues 155-249); made in house; host or cells: E. coli BL21-DE3 pLysS
Source text: as §1, §2, §3

PDZ1-2 tandem of PSD-95 = biological target: T3, PDZ1-2 tandem of PSD-95 (Homo sapiens, UniProt P78352); assay: FP heterologous competition binding assay; conditions: mean ± SEM
T3 construct: PDZ1-2 (residues 61-249) tandem; made in house; host or cells: E. coli BL21-DE3 pLysS
Source text: as §1, §2, §3

[1] = Human blood plasma stability assay; format: in vitro ADME
Method: In this assay, the half-life (T1/2) of a compound in blood plasma is measured in vitro, whereby its susceptibility to degradation by proteases, peptidases and general plasma contents is quantified.
Compounds of interest were dissolved in human blood plasma (270 μl; 3H Biomedical, Sweden, cat no 1300-1-P50) to a concentration of 0.25 mM (30 μL of 2.5 mM) and incubated at 37° C. Aliquots (30 μl) were removed at various time intervals (0, 5, 10, 20, 40, 80, 160, 320, 960, 1280, 2550, 4560 and 7240 min) and quenched with 60 μL trichloroacetic acid (aq., 5%). The aliquots were vortexed, and incubated for at least 15 min, at 4° C. prior to centrifugation at 18,000 g for 2 min and the supernatant was analyzed by RP-HPLC to quantify the remaining compound (absorbance at 218 nm).

PDZ3 of PSD-95 = biological target: T4, PDZ3 of PSD-95 (Homo sapiens, UniProt P78352); assay: FP heterologous competition binding assay; conditions: FP competition; mean ± SEM; NA = no activity/affinity
T4 construct: PDZ3 (residues 309-401); made in house; host or cells: E. coli BL21-DE3 pLysS
Source text: as §1, §2, §3

[2] = human, plasma, Blood plasma half life (T1/2)

fold increase in Ki (loss of affinity) compared to NR2B peptide (1), PDZ1 (PDZ1 of PSD-95): ca. 2 fold | Ki (PDZ1 of PSD-95): 42 µM | fold increase in Ki (loss of affinity) compared to NR2B peptide (1), PDZ2 (PDZ2 of PSD-95): ~9 fold | Ki (PDZ2 of PSD-95): 37 µM
Compound: CC(C)[C@H](NC(=O)[C@H](C)NC(=O)[C@@H](N)[C@@H](C)O)C(=O)O [TAV (49), TAV] (H-Thr-Ala-Val-OH; N-terminus and C-terminus assumed)

fold increase in affinity (more potent) compared to NR2B peptide (1), PDZ1 (PDZ1 of PSD-95): ca. 3 fold | affinity to PDZ2, in words (PDZ2 of PSD-95): only slightly less potent
Compound: EMeTDV ([NMeE]TDV) [Compound 36]

half-life at […] [1, 2]: 32 min
Compound: CC[C@H](C)[C@H](N)C(=O)N[C@@H](C)C(=O)N[C@H](C(=O)N(C)[C@@H](C)C(=O)N[C@H](C(=O)O)C(C)C)[C@@H](C)O [IATAMeV (89), IATAMeV]

half-life [1, 2]: > 133 h
Compound: CC[C@H](C)[C@H](NC(=O)CCOCCOCCOCCOCCOCCC(=O)N[C@H](C(=O)N[C@@H](C)C(=O)N[C@H](C(=O)N(C)[C@@H](C)C(=O)N[C@H](C(=O)O)C(C)C)[C@@H](C)O)[C@@H](C)CC)C(=O)N[C@@H](C)C(=O)N[C@H](C(=O)N(C)[C@@H](C)C(=O)N[C@H](C(=O)O)C(C)C)[C@@H](C)O [(IATAMeV)2PEG4 (90), (IATAMeV)2PEG4]
degradation in human blood plasma, in words [1]: no significant degradation could be detected over a time period of 6 days

half-life at […] [1, 2]: 183 min | Ki (PDZ1-2 tandem of PSD-95): 1 ± 0.06 µM | Ki (PDZ2 of PSD-95): 13 ± 1.1 µM
Compound: CC[C@H](C)[C@H](NC(=O)CCOCCOCCOCCOCCOCCOCCOCCOCCOCCOCCOCCOCCOCCC(=O)N[C@H](C(=O)N[C@@H](C)C(=O)N[C@H](C(=O)N[C@@H](C)C(=O)N[C@H](C(=O)O)C(C)C)[C@@H](C)O)[C@@H](C)CC)C(=O)N[C@@H](C)C(=O)N[C@H](C(=O)N[C@@H](C)C(=O)N[C@H](C(=O)O)C(C)C)[C@@H](C)O [(IATAV)2PEG12 (87), (IATAV)2PEG12]

half-life at […] [1, 2]: 17 to 55 min
Compound: CC(C)[C@H](NC(=O)[C@H](CC(=O)O)NC(=O)[C@H](CO)NC(=O)[C@@H](N)CCC(N)=O)C(=O)O [Compound 29] (H-QSDV-OH)

Ki (PDZ1 of PSD-95): 29 ± 1.6 µM | Ki (PDZ2 of PSD-95): 22 ± 0.92 µM | Ki (PDZ3 of PSD-95): 260 ± 20 µM
Compound: CC(C)[C@H](NC(=O)[C@H](C)NC(=O)[C@@H](NC(=O)[C@@H](N)CCC(=O)O)[C@@H](C)O)C(=O)O [ETAV (51), ETAV]

More lines, now with the values behind:

Compound: CCCN[C@@H](CCC(=O)O)C(=O)N[C@H](C(=O)N[C@@H](C)C(=O)N[C@H](C(=O)O)C(C)C)[C@@H](C)O [Compound 53, N-Propyl-ETAV]
Ki (PDZ1 of PSD-95): 7 ± 0.28 µM

Compound: EMeTQV ([NMeE]TQV) [Compound 39]
fold increase in affinity (more potent) compared to NR2B peptide (1), PDZ1 (PDZ1 of PSD-95): ca. 3 fold | affinity to PDZ2, in words (PDZ2 of PSD-95): only slightly less potent

Compound: CC(C)[C@H](NC(=O)[C@H](C)NC(=O)[C@@H](NC(=O)[C@H](CCC(=O)O)NCCc1ccc(F)c(F)c1)C(C)O)C(=O)O (stereo partly shown) [Compound 62]
Ki (PDZ1 of PSD-95): ~1 µM | Ki (PDZ2 of PSD-95): 1 ± 0.043 µM

Compound: CC(C)[C@H](NC(=O)[C@H](CC(=O)O)NC(=O)[C@H](CO)NC(=O)[C@H](CCC(=O)O)NC(=O)CCOCCOCCOCCOCCOCCOCCOCCOCCOCCC(=O)N[C@@H](CCC(=O)O)C(=O)N[C@@H](CO)C(=O)N[C@@H](CC(=O)O)C(=O)N[C@H](C(=O)O)C(C)C)C(=O)O [Compound 85] (I: ESDV-OH / II: ESDV-OH; linker I:N-II:N via CO(CH2CH2O)9CH2CH2CO; C-terminus assumed)
Ki (PDZ1-2 tandem of PSD-95): 1 ± 0.05 µM

Compound: CC(C)[C@H](NC(=O)[C@H](C)NC(=O)[C@@H](NC(=O)[C@H](CCC(=O)O)NCCc1ccc(Cl)c(Cl)c1)C(C)O)C(=O)O (stereo partly shown) [Compound 61]
Ki (PDZ2 of PSD-95): 1.1 ± 0.11 µM

Compound: CC(C)[C@H](NC(=O)[C@H](CC(=O)O)NC(=O)[C@H](CO)NC(=O)[C@@H](N)CCC(=O)O)C(=O)O [ESDV (8), ESDV] (H-ESDV-OH; N-terminus and C-terminus assumed)
Ki (PDZ1-2 tandem of PSD-95): 28 ± 2.9 µM | fold increase in Ki (loss of affinity) compared to NR2B peptide (1), PDZ1 (PDZ1 of PSD-95): 3.1 fold | Ki (PDZ1 of PSD-95): 56 ± 2.4 µM | fold increase in Ki (loss of affinity) compared to NR2B peptide (1), PDZ2 (PDZ2 of PSD-95): 6.8 fold | Ki (PDZ2 of PSD-95): 28 ± 0.92 µM
